Results: paper PMC8906351 (Pharmaceutical research, 2021)
Where a name gives a salt, the structure may show the parent alone.

Legend:
[1] = tested on: [^14C]phenytoin efflux across the rat BBB; experiment: BEI inhibition study: pre-administration of compounds into rat Par2 region; assay type: in vivo; conditions: for effect of pre-administration on [14C]phenytoin BEI (in words): 20 mM desipramine, probenecid, MK-571, 5 mM quinidine, 4 mM verapamil, 500 μM prazosin, 10 mM methotrexate, DHEAS, PSC833
MCT8 = conditions: concentration of 1 mM; cited from earlier work
[2] = rat, 0.01 uCi
Brain efflux index [3] = conditions: rat
Brain efflux index [4] = assay type: in vivo, mouse
in vivo = conditions: rat, not told
P-glycoprotein (P-gp) = experiment: In situ brain perfusion in wild-type and mdr1a/1b knockout mice; assay type: in vivo, mouse; conditions: [14C]phenytoin 2.73 μM; perfusion 2.5 mL/min for 2 min
[5] = adult rats; brain uptake index; cited from earlier work

CCCN(CCC)S(=O)(=O)c1ccc(C(=O)O)cc1 [Probenecid, probenecid]
BEI (%) ([1]; 0.5 h, 20000 µM): 56.5 ± 24.9% | effect of pre-administration on [14C]phenytoin BEI (in words) ([1]; rat, 30 min): not significantly altered

CN(Cc1cnc2nc(N)nc(N)c2n1)c1ccc(C(=O)N[C@@H](CCC(=O)O)C(=O)O)cc1 [Methotrexate, methotrexate]
BEI (%) ([1]; 0.5 h, 10000 µM): 67.3 ± 16.7% | effect of pre-administration on [14C]phenytoin BEI (in words) ([1]; rat, 30 min): not significantly altered

CN(C)C(=O)CCSC(SCCC(=O)O)c1cccc(/C=C/c2ccc3ccc(Cl)cc3n2)c1 (centres unmarked) [MK-571]
effect of pre-administration on [14C]phenytoin BEI (in words) ([1]; rat, 30 min): not significantly altered

C/C=C/C[C@@H](C)C(=O)[C@H]1C(=O)N[C@@H](C(C)C)C(=O)N(C)CC(=O)N(C)[C@@H](CC(C)C)C(=O)N[C@@H](C(C)C)C(=O)N(C)[C@@H](CC(C)C)C(=O)N[C@@H](C)C(=O)N[C@H](C)C(=O)N(C)[C@@H](CC(C)C)C(=O)N(C)[C@@H](CC(C)C)C(=O)N(C)[C@@H](C(C)C)C(=O)N1C [PSC833]
effect of pre-administration on [14C]phenytoin BEI (in words) ([1]; rat, 30 min): did not alter

COc1cc2nc(N3CCN(C(=O)c4ccco4)CC3)nc(N)c2cc1OC [Prazosin, prazosin]
effect of pre-administration on [14C]phenytoin BEI (in words) ([1]; rat, 30 min): not significantly altered | BEI (%) ([1]; rat, 30 min, compound 0.5 mM pre-administered, control 64.1 ± 12.9): 59.4 ± 8.5%

O=C1OC(c2ccc(O)c(S(=O)(=O)O)c2)(c2ccc(O)c(S(=O)(=O)O)c2)c2c(Br)c(Br)c(Br)c(Br)c21 [BSP, Bromosulfophthalein]
inhibition of MCT8-mediated transport of the other substrates (MCT8): more than 50% | decrease of [14C]phenytoin BEI ([1]; rat, 30 min, pre-administration of 20 mM): 82%

CNCCCN1c2ccccc2CCc2ccccc21 [Desipramine, desipramine hydrochloride]
inhibition of MCT8-mediated transport of the other substrates (MCT8): more than 50% | BEI (%) ([1]; 0.5 h, 20000 µM): 28.4 ± 20.7% | effect of pre-administration on [14C]phenytoin BEI (in words) ([1]; rat, 30 min): significantly decreased

O=C1NC(=O)C(c2ccccc2)(c2ccccc2)N1 [phenytoin, 5,5-diphenylhydantoin]
elimination rate constant kel, bbb ([2]; in vivo): 0.0413 ± 46 min⁻¹ | half-life t1/2 of brain efflux ([2]; not told): 16.8 ± 1.9 min | elimination clearance relative to influx clearance (Brain efflux index [3]; 177 vs 64 μL/(min·g brain) of Cornford et al.): 2.8 fold | elimination clearance across the BBB (Brain efflux index [3]; from kel, bbb and Vd, brain): 177 ±20 μL/(mim•g brain) | brain elimination rate constant kel, BBB (Brain efflux index [4]; mice, [14C]phenytoin 1.15 mM, 0.3 μL injected into S2 region): 0.0223 ± 0.0075 min⁻¹ | half-life t1/2 in the brain (Brain efflux index [4]; mice, [14C]phenytoin injected into S2 region): 31.1 ± 10.8 min | half-life (Brain efflux index [4]; mouse, brain (ipsilateral hemisphere), 0.019 μCi/0.3 μL (= 1.15 mM)): 31 min | half-life (in vivo): 17 min | 100 − BEI value of [14C]phenytoin compared to control ([1]; rat, 30 min, pre-administration of 1 mM unlabeled phenytoin): significantly increased | Kin value, wild-type vs mdr1a/1b knockout mice (P-glycoprotein (P-gp)): not significantly different | blood-to-brain influx clearance [5]: 64 μL/(min·g brain)

C=C[C@H]1C[N@@]2CC[C@H]1C[C@@H]2[C@@H](O)c1ccnc2ccc(OC)cc12 [Quinidine, quinidine]
BEI (%) ([1]; 0.5 h, 5000 µM): 50.5 ± 13.1% | effect of pre-administration on [14C]phenytoin BEI (in words) ([1]; rat, 30 min): not significantly altered
